Article PMC6214909, “An asparagine/glycine switch governs product specificity of human N-terminal methyltransferase NTMT2” (Communications Biology, 2018)
Entries after “also recorded” stand apart in the source; their conditions may differ. Where two headings read alike, the source gives them in different places. Values belong to the molecule of their own block, whether it stands above or below them. Square brackets hold non-standard residues; d marks the D form. Ends that are not written are not given here. Peptide text beside a SMILES is read from it. NMeS = CN[C@@H](CO)C(=O)O; NMeA = CN[C@@H](C)C(=O)O

Tests used:
[1] = molecular target: T1, NTMT2 (Homo sapiens, UniProt Q5VVY1); test: Isothermal titration calorimetry, wild-type NTMT2 and peptide; assay type: binding
T1 construct: DNA encoding human NTMT2 (residues 58–278) was amplified by PCR; SUMO (His8-SUMO of the pET28-MKH8SUMO vector, with TEV site) (N, cleaved yes); made in house; host or cells: Escherichia coli BL21 (DE3)
Method: ITC measurements were performed in 20 mM Tris–HCl pH 7.5, 150 mM NaCl and 0.5 mM TCEP at 25 °C using MicroCal VP-ITC instrument. The final concentrations of protein and peptide were 50–80 μM and 0.6–1.2 mM, respectively. The peptide was titrated into the protein solution with 26 injections of 10 μL each. Injections were spaced 180 s with a reference power of 15 μcal s^−1. The ITC data were processed using Origin software.

[2] = molecular target: RCC1 (Homo sapiens); conditions: cited from earlier work
[3] = molecular target: T1, NTMT2; test: MALDI-MS methyltransferase activity assay, NTMT2; assay type: biochemical; conditions: 2 μM NTMT2, 10 μM peptide, 200 μM SAM, 25 mM Tris–HCl pH 7.5, 50 mM KCl, 37 °C, overnight
Method: (§1) A mixture (36 μL) of 2 μM enzyme (NTMT1 or NTMT2), 25 mM Tris–HCl pH 7.5, 50 mM KCl and 200 μM SAM was incubated at 37 °C for 5 min. 4 μL of 100 μM peptide substrate (final concentration 10 μM) was then added to initiate the reaction. The reaction was incubated overnight and then stopped with quenching solution (20 mM NH4H2PO4, 0.4% (v/v) TFA in 1:1 acetonitrile/water). Reaction mixtures were analyzed with an Applied Biosystems Voyager matrix-assisted laser desorption/ionization time-of-flight mass spectrometer. Processing of all spectra results in Data Explorer included application of a noise filter (correlation factor of 1.0) and a baseline correction. Areas of the monoisotopic peaks for all relevant species were combined to obtain a total area for each sample. The fraction of each methylation state was calculated by summing the areas of all the monoisotopic peaks for that state ([M + H]^+, [M + Na]^+, [M + K]^+, [M – H + 2Na]^+, [M – H + 2 K]^+, and [M – H + Na + K]^+) and then dividing by the total area.

[4] = test system: NTMT1; test: MALDI-MS methyltransferase activity assay, NTMT1; assay type: biochemical, human; conditions: 2 μM NTMT1, 10 μM peptide, 200 μM SAM, 25 mM Tris–HCl pH 7.5, 50 mM KCl, 37 °C, overnight
Method: as §1

[5] = test system: NTMT2-N89G mutant; test: MALDI-MS methyltransferase activity assay, NTMT2-N89G mutant; assay type: biochemical, human; conditions: NTMT2-N89G under the same conditions (2 μM enzyme, 10 μM peptide, 200 μM SAM, pH 7.5, 37 °C, overnight)
Method: as §1

[6] = molecular target: T2, NTMT2 (residues 58–278) N89G mutant (human, UniProt Q5VVY1 58-278, N89G); test: ITC; peptide (0.6–1.2 mM) titrated into protein (50–80 μM); 20 mM Tris–HCl pH 7.5, 150 mM NaCl, 0.5 mM TCEP, 25 °C; MicroCal VP-ITC; conditions: both partners purified
T2 construct: N-terminal methyltransferase NTMT2 (METTL11B/NRMT2), human, residues 58-278; also called NTMT2-N89G; source: E. coli BL21 (DE3), purified with the same protocol as wild type; not shown: SUMO, N-terminal, cleaved

[7] = ITC, wild-type NTMT2, 20 mM Tris–HCl pH 7.5, 150 mM NaCl, 0.5 mM TCEP, 25 °C, ND = no detectable binding

T1 sequence (Q5VVY1 58-278): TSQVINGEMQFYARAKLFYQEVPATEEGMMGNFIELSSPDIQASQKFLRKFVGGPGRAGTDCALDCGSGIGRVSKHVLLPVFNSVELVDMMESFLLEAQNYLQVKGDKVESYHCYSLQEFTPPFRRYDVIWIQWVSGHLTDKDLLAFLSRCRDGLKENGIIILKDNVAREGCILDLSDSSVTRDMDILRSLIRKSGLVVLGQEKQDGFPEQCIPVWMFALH
T2 sequence (Q5VVY1 58-278 N89G): as the sequence (Q5VVY1 58-278) above, with N32G counted along it

Molecule: CC[C@H](C)[C@H](NC(=O)[C@H](CCCNC(=N)N)NC(=O)[C@H](CCCCN)NC(=O)[C@@H]1CCCN1C(=O)[C@H](C)NC)C(=O)N[C@@H](C)C(=O)O [Ame1PKRIA] (H-[NMeA]PKRIA-OH)
Kd [1, 7]: no detectable binding; also recorded: does not bind

Molecule: CC[C@H](C)[C@H](NC(=O)[C@H](CCCNC(=N)N)NC(=O)[C@H](CCCCN)NC(=O)[C@@H]1CCCN1C(=O)[C@H](CO)NC)C(=O)N[C@@H](C)C(=O)O [Sme1PKRIA] (H-[NMeS]PKRIA-OH)
Kd [1, 7]: barely demonstrated any binding affinity; also recorded: does not bind

Molecule: NTMT1 (from UniProt Q9BV86)
Kd [2]: 0.8 µM

B1: Sme1PKRIA peptide (methylated SPKRIA) (peptide)
peptide: [NMeS]PKRIA
notes: N-terminal hexapeptide of regulator of chromatin condensation 1 (RCC1), without the initiator methionine, alpha-N-monomethylated; also called mono-methylated SPKRIA
Kd [6]: 36 µM

B2: Ame1PKRIA peptide (peptide)
peptide: [NMeA]PKRIA
notes: XPKRIA peptide derived from the RCC1 N-terminal hexapeptide SPKRIA, with alanine at the first position, alpha-N-monomethylated; also called mono-methylated APKRIA
Kd [6]: 32 µM

Now from value to molecule:

Kd ([1]; read-out: Kd): 18 µM
Di-methylated fraction [3]: 0.00%
Mono-methylated fraction [3]: 46.39%
Trimethylated fraction [3]: 0.00%
Unmethylated fraction [3]: 53.61%
Molecule: SPKRIA [SPKRIA]

Di-methylated fraction [4]: 33.51%
Mono-methylated fraction [4]: 40.04%
Trimethylated fraction [4]: 0.00%
Unmethylated fraction [4]: 26.44%
Di-methylated fraction [3]: 0.00%
Mono-methylated fraction [3]: 0.00%
Trimethylated fraction [3]: 0.00%
Unmethylated fraction [3]: 100.00%
Di-methylated fraction [5]: 0.00%
Mono-methylated fraction [5]: 11.78%
Trimethylated fraction [5]: 0.00%
Unmethylated fraction [5]: 88.22%
Molecule: TPKRIA [synthetic XPKRIA hexapeptide substrate, X = T]

Di-methylated fraction [4]: 45.70%
Mono-methylated fraction [4]: 54.30%
Trimethylated fraction [4]: 0.00%
Unmethylated fraction [4]: 0.00%
Di-methylated fraction [3]: 0.00%
Mono-methylated fraction [3]: 0.00%
Trimethylated fraction [3]: 0.00%
Unmethylated fraction [3]: 100.00%
Di-methylated fraction [5]: 0.00%
Mono-methylated fraction [5]: 4.18%
Trimethylated fraction [5]: 0.00%
Unmethylated fraction [5]: 95.82%
Molecule: VPKRIA [synthetic XPKRIA hexapeptide substrate, X = V]

Di-methylated fraction [4]: 17.46%
Mono-methylated fraction [4]: 67.03%
Trimethylated fraction [4]: 0.00%
Unmethylated fraction [4]: 15.51%
Di-methylated fraction [3]: 0.00%
Mono-methylated fraction [3]: 36.35%
Trimethylated fraction [3]: 0.00%
Unmethylated fraction [3]: 63.65%
Di-methylated fraction [5]: 0.00%
Mono-methylated fraction [5]: 100.00%
Trimethylated fraction [5]: 0.00%
Unmethylated fraction [5]: 0.00%
Molecule: WPKRIA [synthetic XPKRIA hexapeptide substrate, X = W]

Di-methylated fraction [4]: 100.00%
Mono-methylated fraction [4]: 0.00%
Trimethylated fraction [4]: 0.00%
Unmethylated fraction [4]: 0.00%
Di-methylated fraction [3]: 0.00%
Mono-methylated fraction [3]: 23.72%
Trimethylated fraction [3]: 0.00%
Unmethylated fraction [3]: 76.28%
Di-methylated fraction [5]: 0.00%
Mono-methylated fraction [5]: 87.50%
Trimethylated fraction [5]: 0.00%
Unmethylated fraction [5]: 12.50%
Molecule: YPKRIA [synthetic XPKRIA hexapeptide substrate, X = Y]
